Results as given in patent publication US4012576A, “Antibiotic complex Bu 2183” (priority 1975, dated 1977).
≈ marks a conversion by molar mass, not a printed value. Read-outs that look alike come from different tables or passages of the source.

What was measured:
S. aureus Smith = assay: Experimental infection of mice, median protective dose; format: in vivo; details: Staphylococcus aureus, sc, 120 h
Experimental: (§1) Bu-2183 A and B were evaluated in vivo in experimental infections of mice. The pathogenic bacteria employed were S. aureus Smith, E. coli NIHJ and Ps. aeruginosa A9930. Mice were challenged with a 100 × LD50 dose of the pathogens in a 5% suspension of hog gastric mucin. A single subcutaneous treatment with the antibiotic was made immediately after the bacterial challenge (0 hour), and in a double dose schedule the antibiotic was administered at 0 and 3 hours after the challenge.

E. coli NIHJ [1] = assay: as above; format: in vivo; details: Escherichia coli, sc, 120 h
Experimental: as §1

Ps. aeruginosa A9930 = assay: as above; format: in vivo; details: Pseudomonas aeruginosa, A9930, sc, 120 h
Experimental: as §1

Solubility = format: physicochemical; details: base
E. coli JR 35/C600 = assay: MIC, two-fold agar dilution on Nutrient Agar; format: cell-based
Experimental: (§2) The minimum inhibitory concentrations (MIC) of Bu-2183 A and B were determined against a wide variety of bacteria by the two-fold agar dilution method on Nutrient Agar plates. The inocula-replicating device of Steers et al. was used. Inoculum size was adjusted to be 10^4 dilution of overnight culture of the test organisms in Heart Infusion Broth (Difco). The results are shown in Table 6 along with those of kanamycin which was comparatively tested as a reference antibiotic.

Ps. aeruginosa A20601 = assay: MIC, two-fold agar dilution on Nutrient Agar; format: cell-based; details: Pseudomonas aeruginosa, read-out: MIC
Experimental: as §2

[2] = system: K. pneumoniae Type 22-3038; assay: MIC, two-fold agar dilution on Nutrient Agar; format: cell-based
Experimental: as §2

S. aureus D133 = assay: MIC, two-fold agar dilution on Nutrient Agar; format: cell-based; details: Staphylococcus aureus, read-out: MIC
Experimental: as §2

E. coli NR 79/W677 = assay: MIC, two-fold agar dilution on Nutrient Agar; format: cell-based; details: Escherichia coli
Experimental: as §2

S. aureus D193 = assay: MIC, two-fold agar dilution on Nutrient Agar; format: cell-based
Experimental: as §2

Ser. marcescens A21247 = assay: MIC, two-fold agar dilution on Nutrient Agar; format: cell-based; details: Serratia marcescens, read-out: MIC
Experimental: as §2

E. coli NIHJ [3] = assay: MIC, two-fold agar dilution on Nutrient Agar; format: cell-based; details: Escherichia coli, read-out: MIC
Experimental: as §2

E. coli R 5 = assay: MIC, two-fold agar dilution on Nutrient Agar; format: cell-based; details: Escherichia coli
Experimental: as §2

Ps. aeruginosa GN 315 = assay: MIC, two-fold agar dilution on Nutrient Agar; format: cell-based
Experimental: as §2

E. coli A20732 = assay: MIC, two-fold agar dilution on Nutrient Agar; format: cell-based
Experimental: as §2

Ps. aeruginosa A20653 = assay: MIC, two-fold agar dilution on Nutrient Agar; format: cell-based; details: Pseudomonas aeruginosa, read-out: MIC
Experimental: as §2

Pseudomonas sp. A20621 = assay: MIC, two-fold agar dilution on Nutrient Agar; format: cell-based
Experimental: as §2

Prov. stuartii A20894 = assay: MIC, two-fold agar dilution on Nutrient Agar; format: cell-based
Experimental: as §2

E. coli A20895 = assay: MIC, two-fold agar dilution on Nutrient Agar; format: cell-based; details: Escherichia coli, read-out: MIC
Experimental: as §2

Ps. aeruginosa No. 130 = assay: MIC, two-fold agar dilution on Nutrient Agar; format: cell-based
Experimental: as §2

K. pneumoniae D11 = assay: MIC, two-fold agar dilution on Nutrient Agar; format: cell-based; details: Klebsiella pneumoniae, read-out: MIC
Experimental: as §2

E. coli JR 66/W677 = assay: MIC, two-fold agar dilution on Nutrient Agar; format: cell-based; details: Escherichia coli
Experimental: as §2

[4] = system: Gram-positive and Gram-negative bacteria; assay: In vitro antibacterial activity (general); format: cell-based; details: for antibacterial spectrum: in vitro
Experimental: as §2

Titration in water = format: physicochemical
[5] = system: S. aureus Smith, E. coli NIHJ and Ps. aeruginosa A9930; assay: Experimental infections of mice (all three pathogens); format: in vivo; details: subcutaneous
Experimental: as §1

in vivo = details: for no death at doses up to: 21600 min
Experimental: The acute toxicity of Bu-2183 A and B was determined in mice by the subcutaneous and intravenous routes.

eight test organisms = assay: Effect of media on activity (overall); format: cell-based; details: pH 8; Nutrient Agar, Heart Infusion Agar, Mueller-Hinton Agar
Experimental: The effect of media on the activity of Bu-2183 A and B was determined against eight test organisms. The media tested were Nutrient Agar, Heart Infusion Agar and Mueller-Hinton Agar. The media pH was adjusted at pH 8.

[6] = double dose at 0 and 3 hours after challenge, read-out: PD50 (double doses)
[7] = subcutaneous, single dose at 0 hour, 100 × LD50 challenge, read-out: PD50 (single dose)
[8] = Klebsiella pneumoniae, TYPE223038, Table 6, Kp-8, read-out: MIC
[9] = Staphylococcus aureus, D193, Table 6, Sa-3, read-out: MIC
[10] = Pseudomonas aeruginosa, GN315, Table 6, Pa-27, read-out: MIC
[11] = Escherichia coli, A20732, Table 6, Ec-72, read-out: MIC
[12] = Pseudomonas, SP.A20621, Table 6, Px-10, read-out: MIC
[13] = Providencia stuartii, A20894, Table 6, Ps-2, read-out: MIC
[14] = Pseudomonas aeruginosa, NO.130, Table 6, Pa-16, read-out: MIC

## CCC(=O)NC1C(CO)OC(OC(C(O)CN)C(N)C(O)CO)C(O)C1O (centres unmarked) [Bu-2183 A]
S. aureus Smith; [6]
  ED50: 36 mg/kg
S. aureus Smith; [7]
  ED50: 42 mg/kg
E. coli NIHJ [1]; [6]
  ED50: 45 mg/kg
E. coli NIHJ [1]; [7]
  ED50: 92 mg/kg
Ps. aeruginosa A9930; [6]
  ED50: 80 mg/kg
Ps. aeruginosa A9930; [7]
  ED50: 230 mg/kg
Solubility
  solubility in methanol and ethanol: slightly soluble
  solubility in n-butanol, acetone and other common organic solvents: practically insoluble
  solubility in water: soluble
E. coli JR 35/C600; Escherichia coli, JR35/C600
  MIC: 6.3 µg/mL (≈ 15.9 µM)
E. coli JR 35/C600; Table 7, Ec-10
  MIC: 6.3 µg/mL (≈ 15.9 µM)
Ps. aeruginosa A20601; A20601, Table 6, Pa-21
  MIC: 25 µg/mL (≈ 62.9 µM)
Ps. aeruginosa A20601; A20601, Table 7, Pa-21
  MIC: 50 µg/mL (≈ 126 µM)
[2]; [8]
  MIC: 25 µg/mL (≈ 62.9 µM)
[2]; Table 7, Kp-8 (printed Type 22-3028)
  MIC: 25 µg/mL (≈ 62.9 µM)
S. aureus D133; D133, Table 6, Sa-4
  MIC: 25 µg/mL (≈ 62.9 µM)
S. aureus D133; D133, Table 7, Sa-4
  MIC: 50 µg/mL (≈ 126 µM)
E. coli NR 79/W677; NR79/W677, Table 6, Ec-9
  MIC: 25 µg/mL (≈ 62.9 µM)
E. coli NR 79/W677; NR79/W677, Table 7, Ec-9
  MIC: 12.5 µg/mL (≈ 31.5 µM)
S. aureus D193; [9]
  MIC: 25 µg/mL (≈ 62.9 µM)
S. aureus D193; Table 7, Sa-3
  MIC: 25 µg/mL (≈ 62.9 µM)
Ser. marcescens A21247; A21247, Table 6, Sm-16
  MIC: 100 µg/mL (≈ 252 µM)
Ser. marcescens A21247; A21247, Table 7, Sm-16
  MIC: > 100 µg/mL
E. coli NIHJ [3]; Table 6, Ec-1
  MIC: 12.5 µg/mL (≈ 31.5 µM)
E. coli NIHJ [3]; Table 7, Ec-1
  MIC: 25 µg/mL (≈ 62.9 µM)
E. coli R 5; R5, Table 6, Ec-55
  MIC: 25 µg/mL (≈ 62.9 µM)
E. coli R 5; R5, Table 7, Ec-55
  MIC: 6.3 µg/mL (≈ 15.9 µM)
Ps. aeruginosa GN 315; [10]
  MIC: 25 µg/mL (≈ 62.9 µM)
Ps. aeruginosa GN 315; Table 7, Pa-27
  MIC: 25 µg/mL (≈ 62.9 µM)
E. coli A20732; [11]
  MIC: 12.5 µg/mL (≈ 31.5 µM)
E. coli A20732; Table 7, Ec-72
  MIC: 12.5 µg/mL (≈ 31.5 µM)
Ps. aeruginosa A20653; A20653, Table 6, Pa-12
  MIC: 25 µg/mL (≈ 62.9 µM)
Ps. aeruginosa A20653; A20653, Table 7, Pa-12
  MIC: 50 µg/mL (≈ 126 µM)
Pseudomonas sp. A20621; [12]
  MIC: > 100 µg/mL
Pseudomonas sp. A20621; Table 7, Px-10
  MIC: > 100 µg/mL
Prov. stuartii A20894; [13]
  MIC: > 100 µg/mL
Prov. stuartii A20894; Table 7, Ps-2
  MIC: > 100 µg/mL
E. coli A20895; A20895, Table 6, Ec-62
  MIC: 12.5 µg/mL (≈ 31.5 µM)
E. coli A20895; A20895, Table 7, Ec-62
  MIC: 25 µg/mL (≈ 62.9 µM)
Ps. aeruginosa No. 130; [14]
  MIC: 25 µg/mL (≈ 62.9 µM)
Ps. aeruginosa No. 130; Table 7, Pa-16
  MIC: 25 µg/mL (≈ 62.9 µM)
K. pneumoniae D11; D11, Table 6, Kp-1
  MIC: 3.1 µg/mL (≈ 7.8 µM)
K. pneumoniae D11; D11, Table 7, Kp-1
  MIC: 6.3 µg/mL (≈ 15.9 µM)
E. coli JR 66/W677; JR66/W677, Table 6, Ec-53
  MIC: 6.3 µg/mL (≈ 15.9 µM)
E. coli JR 66/W677; JR66/W677, Table 7, Ec-53
  MIC: 25 µg/mL (≈ 62.9 µM)
[4]
  bio-activity: bio-active
  intrinsic activity in terms of MIC values: moderate or rather weak
  antibacterial spectrum: broad spectrum of antibacterial activity against Gram-positive and Gram-negative bacteria including many of the aminoglycoside-resistant organisms and Pseudomonas strains
[4]; MIC, Table 6
  activity of component A relative to B: 2-4 fold
Titration in water; read-out: pKa' (first value)
  pKa: 6.9
Titration in water; read-out: pKa' (second value)
  pKa: 9.4
[5]
  in vivo activity: afforded in vivo activity against all three of the infections tested
In vivo; mouse, in vivo, iv
  LD50: 2500 mg/kg
In vivo; mouse, in vivo, sc
  LD50 at 360 h: 1000 mg/kg
Eight test organisms
  medium of greatest in vitro activity: the greatest in vitro activity was demonstrated when Nutrient Agar was used

## CC(=O)NC1C(CO)OC(OC(C(O)CN)C(N)C(O)CO)C(O)C1O (centres unmarked) [Bu-2183 B]
S. aureus Smith; [7]
  ED50: 100 mg/kg
E. coli NIHJ [1]; [7]
  ED50: 135 mg/kg
Ps. aeruginosa A9930; [7]
  ED50: 540 mg/kg
Solubility
  solubility in methanol and ethanol: slightly soluble
  solubility in n-butanol, acetone and other common organic solvents: practically insoluble
  solubility in water: soluble
E. coli JR 35/C600; Escherichia coli, JR35/C600
  MIC: 12.5 µg/mL (≈ 32.6 µM)
Ps. aeruginosa A20601; A20601, Table 6, Pa-21
  MIC: 50 µg/mL (≈ 130 µM)
[2]; [8]
  MIC: 100 µg/mL (≈ 261 µM)
S. aureus D133; D133, Table 6, Sa-4
  MIC: > 100 µg/mL
E. coli NR 79/W677; NR79/W677, Table 6, Ec-9
  MIC: 100 µg/mL (≈ 261 µM)
S. aureus D193; [9]
  MIC: 25 µg/mL (≈ 65.2 µM)
Ser. marcescens A21247; A21247, Table 6, Sm-16
  MIC: > 100 µg/mL
E. coli NIHJ [3]; Table 6, Ec-1
  MIC: 50 µg/mL (≈ 130 µM)
E. coli R 5; R5, Table 6, Ec-55
  MIC: 100 µg/mL (≈ 261 µM)
Ps. aeruginosa GN 315; [10]
  MIC: 50 µg/mL (≈ 130 µM)
E. coli A20732; [11]
  MIC: 25 µg/mL (≈ 65.2 µM)
Ps. aeruginosa A20653; A20653, Table 6, Pa-12
  MIC: 100 µg/mL (≈ 261 µM)
Pseudomonas sp. A20621; [12]
  MIC: > 100 µg/mL
Prov. stuartii A20894; [13]
  MIC: > 100 µg/mL
E. coli A20895; A20895, Table 6, Ec-62
  MIC: 50 µg/mL (≈ 130 µM)
Ps. aeruginosa No. 130; [14]
  MIC: 100 µg/mL (≈ 261 µM)
K. pneumoniae D11; D11, Table 6, Kp-1
  MIC: 12.5 µg/mL (≈ 32.6 µM)
E. coli JR 66/W677; JR66/W677, Table 6, Ec-53
  MIC: 25 µg/mL (≈ 65.2 µM)
[4]
  bio-activity: bio-active
  intrinsic activity in terms of MIC values: moderate or rather weak
[4]; listed as B
  antibacterial spectrum: broad spectrum of antibacterial activity against Gram-positive and Gram-negative bacteria including many of the aminoglycoside-resistant organisms and Pseudomonas strains
Titration in water; read-out: pKa' (first value)
  pKa: 7.15
Titration in water; read-out: pKa' (second value)
  pKa: 9.35
[5]
  in vivo activity: afforded in vivo activity against all three of the infections tested
In vivo; mice, i.v. and s.c.
  acute toxicity compared with Bu-2183 A: much less toxic than Bu-2183 A
In vivo; mouse, in vivo, iv
  no death at doses up to: ≥ 2000 mg/kg
In vivo; mouse, in vivo, sc
  no death at doses up to: ≥ 2000 mg/kg
Eight test organisms
  medium of greatest in vitro activity: the greatest in vitro activity was demonstrated when Nutrient Agar was used
